# Patent publication US8247572B2, “Facilitated transport of bisphosphonates by vitamin C” (Duke University, priority 2005, dated 2012)
# Experiments:
# [1] = test system: primary human chondrocytes; assay: BP / BP-AA uptake assay in chondrocyte monolayer (HPLC); type: cell-based
# Protocol: Uptake Assay Methods. Primary human chondrocytes were seeded at a density of 4.5×10^5 cells for 48 hours. The cells were washed with ascorbic acid transport buffer. The free bisphosphonate (BP) and the bisphosphonate conjugated to ascorbic acid (BP-AA) were solubilized in ascorbic acid transport buffer at 10 mM concentration. The cells were incubated with either the free BP or the BP-AA for an hour at 37° C./5% CO2. The cells were washed 4× with ice-cold PBS to remove any extracellular BP or BP-AA. The cells were then lysed in 250 μl ddH2O for 15 minutes on ice, sonicated for 5 minutes, and then scraped from the culture dish. The lysate was then analyzed by ion pair reverse phase HPLC with UV and electrochemical detection (ECD) as described below.
# HPLC Methods. Ascorbic acid, free and conjugated, and risedronate analogs were determined by a modification of an ion pair reverse phase high-performance liquid chromatography method initially described by Vallano et al. (Vallano, P. T., Shugarts, S. B., Kline, W. F., Woolf, E. J., and Matuszewski, B. K., Determination of Risedronate in Human Urine by Column-Switching Ion-Pair High-Performance Liquid Chromatography with Ultraviolet Detection. J Chromatogr B Analyt Technol Biomed Life Sci, 2003, 794:23-33). The column consisted of a C18 packing, the mobile phase contained 8% acetonitrile and 92% of 0.005M Q8 (1-octyltriethylammonium phosphate [Regis Technologies, Morton Grove, Ill.]) and 1 mM etidronate (1-hydroxyethylidene-1,1-diphosphonic acid [Strem Chemicals, Newburyport, Mass.]) in a sodium phosphate buffer, pH 6.2, and was pumped at […]. The injection volume was 100 μl and detection was at 262 nm (UV) and 0.7V (ECD).
# [2] = test system: primary human chondrocytes; assay: Dehydroascorbate transport assay in isolated primary human chondrocytes; type: cell-based; settings: for ability to compete with L-14C-DHA transport: 2 mM unlabeled competitor; for mode of inhibition of L-14C-DHA transport (Dixon plot): data not shown; for inhibition of DHA transport: 0.1 mM inhibitor, p<0.001; for increase in L-14C-DHA uptake versus 21% oxygen tension: 24 hours
# Protocol: Dehydroascorbate Transport Assay in Isolated Primary Human Chondrocytes. DHA transport was measured using a modified version of the uptake assay published by Wilson and Dixon (Wilson J X, Dixon S J. High-Affinity Sodium-Dependent Uptake of Ascorbic Acid by Rat Osteoblasts. J. Mem. Biol. 1989; 111:83-91). Primary human chondrocytes were seeded at a density of 4.5×10^5 cells/well on a 6-well plate. Prior to the transport assay, cells were plated for 48 hours in DMEM/F12, containing 10% FCS but no AA or DHA. Cells were washed in transport buffer containing: 134 mM LiCl, 5.4 mM KCl, 1.8 mM CaCl2, 0.8 mM MgSO4, 20 mM HEPES, pH 7.3 with KOH. DHA uptake was assessed by incubating the chondrocytes in transport buffer containing 189 μM L-^14C-dehydroascorbate (L-^14C-DHA). […] The standard DHA transport assay conditions were 37° C./5% CO2/21% O2 for 10 min. DHA uptake was terminated by washing the cells four-times in ice-cold PBS. […] The total pmol of L-^14C-DHA transported was calculated using the total dpm of L-^14C-DHA transported and the specific activity of the radiolabel.
# Matrix Biol. 2002; 21:175-184). Stock solutions of different unlabeled DHA forms were generated in the same manner as the L-^14C-DHA. […]
# [3] = test system: primary human chondrocytes; assay: Ascorbic acid transport assay in isolated primary human chondrocytes; type: cell-based; settings: for ability to compete with L-14C-Asc for transport: 2 mM unlabeled competitor; for suppression of L-14C-Asc transport by unlabeled competitor: 2 mM competitor, versus no competitor
# Protocol: Ascorbic Acid Transport Assay in Isolated Primary Human Chondrocytes. AA transport was measured using a modified version of the uptake assay published by Wilson and Dixon (J. X. Wilson, S. J. Dixon, High-Affinity Sodium-Dependent Uptake of Ascorbic Acid by Rat Osteoblasts, J. Mem. Biol. 111 (1989) 83-91). Primary human chondrocytes were seeded at a density of 4.5×10^5 cells/well on a 6-well plate (or 2.25×10^5 cells/well on a 12-well plate for the kinetic experiments). Prior to the transport assay, cells were plated for 48 hours in DMEM/F12, containing 10% FCS but no AA. Cells were washed in transport buffer containing: 134 mM NaCl, 5.4 mM KCl, 1.8 mM CaCl2, 0.8 mM MgSO4, 10 mM D-glucose, 20 mM HEPES, pH 7.3 with NaOH. […] The standard AA transport assay conditions were 37° C./5% CO2 for 10 minutes. AA uptake was terminated by washing the cells four-times in ice-cold PBS. The cells were lysed with Puregene Cell Lysis Solution (Gentra Systems) and scintillation counting was performed in Uniscint BD (National Diagnostics).
# In experiments with sodium free transport buffer, iso-osmotic concentrations of LiCl were substituted for NaCl. […]
# [4] = test system: human articular cartilage explants; settings: 50 µM
# From the text: Cartilage explants were isolated from human knee articular cartilage surgical waste tissues at the time of knee replacement surgery (n=5). Cartilage was harvested from non-lesioned areas, using a 2 mm diameter micro dissecting trephine (Biomedical Research Instruments, Rockville, Md.). A group of five cartilage plugs was pooled to constitute one sample. Each sample was paired with a corresponding sample from the same specimen and the same sites. The cartilage plugs were weighed and then transferred to a 24-well plate, containing 1 ml wash media (described in the chondrocyte isolation procedure). The cartilage plugs were incubated in 1 ml DMEM/F12 (Gibco, Grand Island, N.Y.) with 10% FCS (Gibco) and no AA for 48 hours at 37° C./5% CO2, prior to the procedures below.
# The cartilage explants were washed with PBS and half of the samples were transferred to 1.5 ml centrifuge tubes with a drop of PBS. The tubes were frozen in liquid nitrogen for three minutes and thawed at 37° C. for five minutes. This freeze/thaw procedure was performed for a total of three cycles. The dead explants were transferred back to the 24-well plates.
# Explant Ascorbic Acid Transport Assay. […] Samples were processed to isolate the cells from the matrix fraction (see Intracellular versus Extracellular AA) or counted for radioactivity by transferring the whole explants to glass scintillation vials and solubilizing the samples overnight at room temperature in 0.5 ml Solulene 350 (Perkin Elmer Life and Analytical Services, Boston, Mass.). Hionic Fluor scintillation fluid (5 ml, Perkin Elmer Life and Analytical Services) was added, and radioactivity was counted in the live and dead explants, using a scintillation counter.
# Explant isolation, explant treatments, and the explant AA transport assay (through the PBS wash step) were performed, followed by the chondrocyte isolation procedure described above. After the cell fraction was isolated from the matrix, the cells were washed, then 15 μl of the cells were counted on a hemacytometer, in order to determine the total number of cells in the cell fraction. […]
# [5] = 100 μM inhibitor, 10 minutes, p<0.001
compound,measurement,setting,value
"O=C(CCC(=O)OCC(O)C1OC(=O)C(O)=C1O)Nc1ccc(NC(P(=O)(O)O)P(=O)(O)O)nc1 [BP-AA, 6-O-{N-[6-[(bisphosphonomethyl)amino]pyridin-3-yl]}succinyl-L-ascorbic acid]",transport of BP-AA versus AA alone,"[1]; 10 mM BP-AA, one hour",143 fold
same,amount gaining entry to chondrocytes in monolayer,"[1]; 10 mM, one hour, 37° C.",2281 nmol/mg protein
same,inhibition at 10000 µM,"[1]; Homo sapiens, Chondrocyte, 1 h, 10 mM BP-AA, one hour, no sodium, read-out: inhibition of BP-AA uptake in the absence of sodium",50%
"O=C1O[C@H]([C@H](O)CO)C(O)=C1O [D-Asc, D-isoascorbic acid]",ability to compete with L-14C-DHA transport,[2]; 10 min,able to effectively compete
same,mode of inhibition of L-14C-DHA transport (Dixon plot),[2],non-competitive inhibitors
same,ability to compete with L-14C-Asc for transport,[3]; 10 minutes,unable to effectively compete
"O=C1O[C@@H]([C@H](O)CO)C(=O)C1=O [D-DHA, D-dehydroascorbate]",ability to compete with L-14C-DHA transport,[2]; 10 min,able to effectively compete
"O=C1OC(C(O)CO)C(=O)C1=O [DHA, L-dehydroascorbate]",ability to compete with L-14C-DHA transport,[2]; 10 min,able to effectively compete
same,increase in DHA transport versus 21% oxygen tension,"[2]; human, 10 min, 189 µM, pH 7.3",2.7 fold
same,increase of DHA transport versus 21% oxygen tension,"[2]; human, 10 min, 189 µM, pH 7.3",3.2 fold
same,"increase of DHA transport versus 21% oxygen tension, mean","[2]; human, 10 min, 189 µM, pH 7.3",3.5 fold
same,passive diffusion of DHA as share of transport under optimized conditions,"[2]; human, 10 min, 189 µM, pH 7.3",11%
same,ability to compete with L-14C-Asc for transport,[3]; 10 minutes,unable to effectively compete
"O=C1O[C@H]([C@@H](O)CO)C(O)=C1O [L-Asc, L-ascorbic acid]",ability to compete with L-14C-DHA transport,[2]; 10 min,able to effectively compete
same,mode of inhibition of L-14C-DHA transport (Dixon plot),[2],non-competitive inhibitors
same,"calculated intracellular concentration of total AA, deep zone cells",[4],45 mM
same,"calculated intracellular concentration of total AA, middle zone cells",[4],51 mM
same,"calculated intracellular concentration of total AA, superficial zone cells",[4],67 mM
same,vMax for AA transport in chondrocytes,"[3]; 0-500 μM L-14C-Asc, Michaelis-Menten",148+/−35 pmol L-^14C-Asc/10^6 cells/10 minutes
same,Km,"[3]; 0-500 μM L-14C-Asc, Michaelis-Menten, read-out: Km for AA transport in chondrocytes",179 µM
same,concentration of unlabeled L-Asc at which the transporter is fully saturated,"[3]; 200 μM L-14C-Asc, 10 minutes",approximately 1000 μM
same,suppression of L-14C-Asc transport by unlabeled competitor,"[3]; 10 minutes, p<0.001",approximately 60%
"O=C1O[C@H]([C@H](O)CO)C([O-])=C1O.[Na+] [Na D-Asc, Na D-isoascorbate]",ability to compete with L-14C-DHA transport,[2]; 10 min,able to effectively compete
same,ability to compete with L-14C-Asc for transport,[3]; 10 minutes,unable to effectively compete
"O=C1O[C@H]([C@@H](O)CO)C([O-])=C1O.[Na+] [Na L-Asc, Na L-ascorbate]",ability to compete with L-14C-DHA transport,[2]; 10 min,able to effectively compete
same,suppression of L-14C-Asc transport by unlabeled competitor,"[3]; 10 minutes, p<0.001",75%
C=C1[C@@H](C)[C@H]2[C@H](Cc3ccccc3)NC(=O)[C@]23OC(=O)/C=C/[C@H](O)CCC[C@@H](C)C/C=C/[C@H]3[C@@H]1O [cytochalasin B],inhibition of DHA transport,[2]; 10 min,95%
same,inhibition of L-14C-Asc transport,[3]; [5],40%
C[C@H]1C/C=C/[C@H]2[C@@H]3O[C@]3(C)[C@@H](C)[C@H]3[C@H](Cc4ccccc4)NC(=O)[C@]32OC(=O)O/C=C/[C@@](C)(O)C1=O [cytochalasin E],inhibition of DHA transport,[2]; 10 min,40%
same,inhibition of L-14C-Asc transport,[3]; [5],35%
O=C1C(CC[S+]([O-])c2ccccc2)C(=O)N(c2ccccc2)N1c1ccccc1 (stereo not shown) [sulfinpyrazone],inhibition at 100 µM,"[1]; Homo sapiens, Chondrocyte, 0.75 h, 100 μM sulfinpyrazone, 45 minutes in advance of 10 mM BP-AA",~75%
same,inhibition at 100 µM,"[3]; Homo sapiens, Chondrocyte, 10 min, 100 μM inhibitor, 10 minutes, p<0.001, read-out: inhibition of L-14C-Asc transport",~65%
L-^14C-dehydroascorbate [L-^14C-DHA],increase in L-14C-DHA uptake versus 21% oxygen tension,"[2]; 2.5% oxygen, absence of glucose",1.6 fold
same,increase in L-14C-DHA uptake versus 21% oxygen tension,[2]; 5% oxygen,no increase
same,14C-DHA Uptake (change versus 21% oxygen tension),"[2]; O2 tension 5%, 24 hrs",No change
Na D-dehydroascorbate [Na D-DHA],ability to compete with L-14C-DHA transport,[2]; 10 min,unable to compete
Na L-dehydroascorbate [Na L-DHA],ability to compete with L-14C-DHA transport,[2]; 10 min,able to effectively compete
